The record followed here is paper PMC8667930, “Novel sulphonamide-bearing methoxyquinazolinone derivatives as anticancer and apoptosis inducers: synthesis, biological evaluation and in silico studies” (Journal of Enzyme Inhibition and Medicinal Chemistry, 2021).

The subject of data set [1] is caspase-7. Nature of the data set: Western blot, caspase-7 protein level in MCF-7 cells. The format is cell-based, human. Particulars: MCF-7, 10, 20 and 30 μM, 24 h, β-actin internal control. As to the method:
(§1) MCF-7 cells were treated with compounds 6 and 10 for 24 h. The cells were then harvested and washed twice with 1x PBS, by adding lysis buffer containing 20 mM Tris (pH 7.5), 150 mM NaCl, 1 mM sodium ethylenediaminetetraacetic acid, 1 mM ethylene glycol-bis (β-aminoethyl ether)-N,N,N′,N′-tetraacetic acid, 1% Triton X100, 1 µg/mL leupeptin, and 100 µM phenylmethylsulphonyl fluoride, to prepare the total cell extract. The lysate was cooled on ice for 1 h and clarified by centrifugation at 13000 rpm at 4 °C for 15 min. The supernatants were collected. The protein concentrations of all the samples were determined using Bradford reagent (BioRad, Hercules, CA, USA). For western blot analysis, 30 − 35 µg of the total protein was loaded onto 10% sodium dodecyl sulphate-polyacrylamide gel and then transferred to a polyvinylidene fluoride membrane. The membrane was blocked with 5% bovine serum albumin in 0.1% Tween-tris-buffered saline (TBST) buffer for 2 h at room temperature, and then washed thrice with TBST. The membrane was incubated with primary antibodies for Bcl-2, p53, caspase7, Bax, and β-actin (1:200, Santa Cruz Biotechnology). […] It was then ready for immunodetection; the membrane was incubated with enhanced chemiluminescence western blotting detection reagents (Amersham, Pharmacia Biotech Inc., Piscataway, NJ, USA) and bands were obtained on exposing to X-ray films (Amersham).
Background: In western blotting, separated proteins are transferred to a membrane and probed.

The subject of data set [2] is caspase-7. Nature of the data set: RT-PCR, caspase-7 mRNA expression in MCF-7 cells. It is filed as cell-based, human. Particulars: MCF-7, 10, 20 and 30 µM, 24 h, compared to control, β-actin internal control. As to the method:
(§2) MCF-7 cells were cultured with different concentrations (10, 20 and 30 µM) of compounds 6 and 10 for 24 h, and the untreated cells were used as a control. The cells were lysed using Trizol reagent (Invitrogen, USA). Total RNA was extracted as per the manufacturer’s instructions. Total RNA was quantitated by taking 2 µL of resuspended RNA on a Nano drop spectrophotometer (Thermo Scientific, USA) and reverse transcribing an equal amount (1 µg) of RNA to make complementary deoxyribonucleic acid (cDNA) using a Super Script VILO cDNA synthesis Kit (Invitrogen), as per the manufacturer’s protocol, in a final volume of 20 µL. The mixture was incubated at 42 °C for 1 h. The generated cDNA (2 µL) was used to assess the mRNA expression of apoptotic genes, including caspase-7, Bax, Bcl-2, and p53. The actin gene was used as an internal control. RT-PCR was performed using 5x Firepol Master Mix ready to load (Solis BioDyne, Tartu, Estonia), as per the manufacturer’s instructions. The program was run as follows: initial denaturation at 95 °C for 5 min, denaturation at 95 °C for 30 s, annealing at 55 °C for 45 s, elongation at 72 °C for 45 s (30 cycles), and final extension at 72 °C for 10 min. The RT-PCR products were electrophoresed on a 1.2% agarose gel containing ethidium bromide, and the gel was imaged on a Licor machine.

In data set [3] the test system is Bax. Nature of the data set: Western blot, Bax protein level in MCF-7 cells. The format is cell-based, human. Particulars: MCF-7, 10, 20 and 30 μM, 24 h, β-actin internal control. As to the method: as §1
Data set [4] deals with Bcl-2. Nature of the data set: Western blot, Bcl-2 protein level in MCF-7 cells. The format is cell-based, human. Particulars: MCF-7, 10, 20 and 30 μM, 24 h, β-actin internal control. As to the method:
as §1

Data set [5] deals with Bax. Nature of the data set: RT-PCR, Bax mRNA expression in MCF-7 cells. The format is cell-based, human. The note with it: MCF-7, 10, 20 and 30 µM, 24 h, compared to control, β-actin internal control. As to the method:
as §2

In data set [6] the test system is A549 cells (non-small cell lung carcinoma). Nature of the data set: MTT cytotoxicity assay, A549. The format is cell-based. The note with it: Homo sapiens, A549, 48 h treatment, mean ± SD (n = 3), NA = no activity. As to the method:
(§3) The MTT assay was performed to test the antiproliferative activity of the synthesised compounds, as per the methodology described by Alqahtani and co-workers[35]. Briefly, A549, HepG2, LoVo, MCF-7 and HUVEC cell lines were seeded in 96-cell culture plates (5 × 10^4 per well) and allowed 24 h for adherence. The cells were then treated with different concentrations of each compound, and 5-fluorouracil was used as a positive control. Following the treatment period (48 h), 10 µL of MTT solution (5 mg/mL) was added to each well and the plates were incubated at 37 °C for 2–4 h. Isopropanol (100 µL) acidified with 0.1 N HCl was added to solubilise the formazan products and the plate was kept on a shaker for 10 min. The optical density of each mixture was measured at 570 nm using an enzyme-linked immunosorbent assay plate reader (ELISA plate reader, Bio-Tek, USA). The concentrations of tested compounds required to inhibit cell growth by 50% (IC50) were calculated using a dose-response curve. Cell survival was calculated using the following equation: Cell survival (%)=(OD of treated sample)/(OD of untreated sample)×100
(Formazan colour is commonly taken as a measure of viable cells.)

Data set [7] relates to p53. Nature of the data set: RT-PCR, p53 mRNA expression in MCF-7 cells. It is filed as cell-based, human. The note with it: MCF-7, 10, 20 and 30 µM, 24 h, compared to control, β-actin internal control. As to the method:
as §2

Data set [8] relates to MCF-7 cells (human breast cancer cell line). Nature of the data set: MTT cytotoxicity assay, MCF-7. Particulars: Homo sapiens, MCF7, 48 h treatment, mean ± SD (n = 3), NA = no activity. It is filed as cell-based. As to the method: as §3
For data set [9], the system named is p53. Nature of the data set: Western blot, p53 protein level in MCF-7 cells. It is filed as cell-based, human. Particulars: MCF-7, 10, 20 and 30 μM, 24 h, β-actin internal control. As to the method:
as §1

Data set [10] deals with HepG2 cells (liver cancer). Nature of the data set: MTT cytotoxicity assay, HepG2. The note with it: Homo sapiens, HepG2, 48 h treatment, mean ± SD (n = 3), NA = no activity. It is filed as cell-based. As to the method: as §3
The test system of data set [11] is MCF-7 cells. Nature of the data set: Cell cycle analysis by flow cytometry (propidium iodide). The format is cell-based, human. The note with it: 24 h, average ± SD, control 0.75 ± 0.07%. As to the method:
Cell cycle analysis was conducted as previously described by Alqahtani and co-workers[35]. Briefly, MCF-7 cells were seeded in 6-well plates and incubated for 24 h before the addition of various concentrations (10, 20 and 30 µM) of compounds 6 and 10. After incubating for 24 h, the cells were harvested, washed, and resuspended in PBS. The cells were fixed with 70% ethanol at 4 °C for 4 h. The cells were then incubated with RNase (100 µg/mL) and PI (50 µg/mL) for 30 min in the dark. Flow cytometry analysis was performed using Cytomics FC 500 (Beckman Coulter, Brea, CA, USA).
On the technique in general: A flow cytometer gives signals particle by particle.

The subject of data set [12] is MCF-7 cells. Nature of the data set: Annexin V-FITC/PI apoptosis assay by flow cytometry. The note with it: 24 h, average ± SD, control 2.9 ± 0.84% (6) / 3.3 ± 0.28% (10). The format is cell-based, human. As to the method:
Apoptosis was measured using the Annexin V/PI detection kit (BioLegend, CA, USA), as per the manufacturer’s instructions. Briefly, MCF-7 cells were treated with different concentrations (10, 20 and 30 µM) of compounds 6 and 10 for 24 h. After treatment, the detached and adherent cells were collected, washed, and resuspended in 100 µL of 1X binding buffer. Then, 5 µL of Annexin V and 5 µL of PI were added to the resuspended cells. After incubating for 15 min in the dark, 400 µL of binding buffer was added to each tube and cell samples were analysed using Cytomics FC 500 (Beckman Coulter, Brea, CA, USA). Data collection and analysis were conducted using the CXP software V. 3.0 (Aspect, Phoenix, AZ, USA).

In data set [13] the test system is Bcl-2. Nature of the data set: RT-PCR, Bcl-2 mRNA expression in MCF-7 cells. The format is cell-based, human. The note with it: MCF-7, 10, 20 and 30 µM, 24 h, compared to control, β-actin internal control. As to the method:
as §2

Data set [14] relates to LoVo cells (colon cancer). Nature of the data set: MTT cytotoxicity assay, LoVo. Particulars: Homo sapiens, LoVo, 48 h treatment, mean ± SD (n = 3), NA = no activity. It is filed as cell-based. As to the method:
as §3

Data set [15] concerns HUVEC (normal human umbilical vein endothelial cells). Nature of the data set: MTT cytotoxicity assay, HUVEC. The format is cell-based. The note with it: Homo sapiens, HUVEC, 48 h treatment, mean ± SD (n = 3), NA = no activity. As to the method:
as §3

Where only a bound is given, the exact number is not on record here.

With `COc1cccc2c(=O)n(-c3ccc(S(N)(=O)=O)cc3)c(SCC(=O)Nc3ccccc3C)nc12` [Compound 6, 2-((8-Methoxy-4-oxo-3-(4-sulphamoylphenyl)-3,4-dihydroquinazolin-2-yl)thio)-N-(o-tolyl) acetamide], the melting point (in general, the temperature, or range, at which the solid turns liquid) was > 350 °C. Also, the caspase-7 protein level entry in data set [1] was “markedly increased”. Moreover, in data set [2], the “expression of caspase-7 mRNA” value is listed as “increased”. The Bax protein level entry in data set [3] is given as “markedly increased”. Besides, the Bcl-2 protein expression result in data set [4] was “down-regulated”. Besides, the “expression of Bax mRNA” value in data set [5] is reported as “increased”. Inhibition in data set [6] was half-maximal at 51.5 ± 1.36 µM (IC50). In data set [7], the “expression of p53 mRNA” value is “increased”. Further, the IC50 (as a rule, the concentration that gives 50% inhibition) in data set [8] is 20.2 ± 0.6 µM. Besides, in [9], the p53 protein level result is listed as “markedly increased”. In data set [10], this compound showed an IC50 of 45.6 ± 0.71 µM. For the same compound, the “proportion of sub-G1 phase cells” value in data set [11] (MCF-7, 10 µM) amounted to 3.35 ± 0.07%. Further, the “proportion of sub-G1 phase cells” value in data set [11] (MCF-7, 20 µM) was found to be 7.8 ± 0.14%. The “proportion of sub-G1 phase cells” value in [11] (MCF-7, 30 µM) amounted to 22.85 ± 1.2%. In addition, in data set [12] (MCF-7, 10 µM), the “proportion of cells in early apoptosis” value is recorded as 7.6 ± 1.4%. For the same compound, the “proportion of cells in early apoptosis” value in data set [12] (MCF-7, 20 µM) stood at 11.4 ± 1.97%. Also, the “proportion of cells in early apoptosis” value in data set [12] (MCF-7, 30 µM) was 18.35 ± 2.4%. Moreover, the “expression of Bcl-2 mRNA” value in data set [13] is reported as “downregulated”. Also, in data set [14], the concentration for half-maximal inhibition (IC50) was 22.6 ± 0.86 µM. Besides, in data set [15], the half-maximal inhibitory concentration (IC50) worked out at 88.27 ± 0.32 µM.

Consider `CCc1cccc(NC(=O)CSc2nc3c(OC)cccc3c(=O)n2-c2ccc(S(N)(=O)=O)cc2)c1` [Compound 10, N-(3-Ethylphenyl)-2-((8-methoxy-4-oxo-3-(4-sulphamoylphenyl)-3,4-dihydroquinazolin-2-yl)thio) acetamide], for which the melting point fell in the range of 292 to 294 °C. Also, in data set [1], the caspase-7 protein level entry is reported as “markedly increased”. In [2], the “expression of caspase-7 mRNA” value was “increased”. In addition, in data set [3], the Bax protein level result was “markedly increased”. In addition, in [4], the Bcl-2 protein expression entry is “down-regulated”. In addition, in [5], the “expression of Bax mRNA” value was “increased”. Also, in data set [6], half-maximal inhibition (IC50) was put at 48 ± 2.78 µM. In addition, the “expression of p53 mRNA” value in data set [7] was “increased”. In data set [8], this compound gave an IC50 of 20.9 ± 0.4 µM. Also, in [9], the p53 protein level entry was “markedly increased”. This compound registered a half-inhibitory concentration (IC50) in data set [10] of 42.3 ± 1.59 µM. Also, the “proportion of sub-G1 phase cells” value in [11] (MCF-7, 10 µM) is listed as 4.3 ± 0.28%. The “proportion of sub-G1 phase cells” value in data set [11] (MCF-7, 30 µM) stood at 30.6 ± 0.07%. Moreover, in [12] (MCF-7, 10 µM), the “proportion of cells in early apoptosis” value was found to be 9.55 ± 0.2%. Moreover, the “proportion of cells in early apoptosis” value in data set [12] (MCF-7, 30 µM) was 16 ± 0.84%. For the same compound, in data set [13], the “expression of Bcl-2 mRNA” value is recorded as “downregulated”. Moreover, the IC50 in data set [14] stood at 22.3 ± 2.26 µM. In data set [15], this compound returned an IC50 of 32 ± 1.47 µM.
